We go through 1 compound from US6808721B2, “Methods for coating pharmaceutical core tablets” (Boehringer Ingelheim Pharmaceuticals, Inc., priority 2001, dated 2004).

In brackets after ≈: the same amount, converted by molar mass.

Data set [1] concerns proinflammatory cytokines, such as tumor necrosis factor (TNF) and interleukin-1 (IL-1). Conditions: disclosed in PCT/US99/29165 and U.S. Pat. No. 6,319,921; cited from earlier work.
Another data set can be described thus: pKa of the drug. The data set is classed as physicochemical. As for the experimental part:
(§1) At least seven polymorphs of BIRB 796 have been isolated (the melt point of the drug is about 152° C. and the pKa about 6.1). The polymorphs generally exist in the form of elongated needles. BIRB 796 is relatively poorly soluble in physiological environments. The solubility of polymorphic BIRB 796 drug substance (Form IV) has been determined to be about 0.5 ug/ml at pH 7.4 and about 10 mg/ml at pH 2.0.

A short description of data set [2]: Solubility of BIRB 796 drug substance. The conditions noted are these: for solubility: polymorphic drug substance (Form IV). The format is physicochemical. As for the experimental part:
as §1

Data set [3] in a line: Discoloration on exposure to light or heat. The data set is classed as physicochemical. The conditions noted are these: in the presence of light. From the text: It has been discovered that BIRB 796 may lead to discoloration of a core tablet in which it is contained when that core tablet is exposed to light or heat. […] Tablet coatings preferably comprise 2-3%, more preferably about 2.5%, by weight of the BIRB 796 tablet. Masking of the color change may also be used to create a pharmaceutically acceptable dosage form, as for example, mixing dry colorants (including yellow no. 10 iron oxide lake) into the formulation.

The term pKa denotes the negative logarithm of the acid dissociation constant. The term solubility denotes the dissolved amount per volume that the medium holds. Consider `Cc1ccc(-n2nc(C(C)(C)C)cc2NC(=O)Nc2ccc(OCCN3CCOCC3)c3ccccc23)cc1` [BIRB 796, 1-(5-tert-butyl-2-p-tolyl-2H-pyrazol-3-yl)-3-[4-(2-morpholin-4-yl-ethoxy)-naphthalen-1-yl]-urea], for which the “inhibitory activity with respect to proinflammatory cytokines” value in data set [1] is on record as “unexpectedly significant inhibitory activity”. In the data set “pKa of the drug”, the pKa is ~6.1. Further, the solubility in data set [2] (aqueous buffer, pH 7.4) is ~0.0005 mg/mL (≈ 0.000948 mM); in data set [2] (simulated gastric fluid, pH 2.0), ~10 mg/mL (≈ 19 mM). In addition, the aqueous solubility result in data set [2] (in words) was “poor aqueous solubility”. Further, the discoloration entry in data set [3] is recorded as “tendency to discolor in the presence of light”.
